Experimental data as given in patent publication US9447073B2, “Fungicidal compositions” (Viamet Pharmaceuticals, Inc., priority 2013, dated 2016).
Where two headings read alike, the source gives them in different places.

What was measured:
[1] = test system: Mycosphaerella graminicola (Anamorph: Septoria tritici; Bayer Code SEPTTR); assay: Fungicidal activity: Leaf Blotch of Wheat (SEPTTR), wheat seedlings in greenhouse; type: in vivo; parameters: key to Disease Control SEPTTR 1DP: A: 80-100; B: More than 0—Less than 80; C: Not Tested; D: No activity noticed in this bioassay; settings: wheat (variety Yuma); for pest or weed control at 50 ppm: Zymoseptoria tritici
Protocol: (§1) Technical grades of materials were dissolved in acetone, which were then mixed with nine volumes of water containing 110 ppm Triton X-100. The fungicide solutions were applied onto wheat seedlings using an automated booth sprayer to run-off. All sprayed plants were allowed to air dry prior to further handling. Wheat plants (variety Yuma) were grown from seed in a greenhouse in 50% mineral soil/50% soil-less Metro mix until the first leaf was fully emerged, with 7-10 seedlings per pot. These plants were inoculated with an aqueous spore suspension of Septoria tritici either prior to or after fungicide treatments. After inoculation the plants were kept in 100% relative humidity (one day in a dark dew chamber followed by two to three days in a lighted dew chamber at 20° C.) to permit spores to germinate and infect the leaf. The plants were then transferred to a greenhouse set at 20° C. for disease to develop. When disease symptoms were fully expressed on the 1st leaves of untreated plants, infection levels were assessed on a scale of 0 to 100 percent disease severity. Percent disease control was calculated using the ratio of disease severity on treated plants relative to untreated plants.

[2] = test system: Puccinia triticina (Synonym: Puccinia recondita f sp. tritici; Bayer Code PUCCRT); assay: Fungicidal activity: Wheat Brown Rust (PUCCRT), wheat seedlings in greenhouse; type: in vivo; settings: wheat (variety Yuma)
Protocol: Technical grades of materials were dissolved in acetone, which were then mixed with nine volumes of water containing 110 ppm Triton X-100. The fungicide solutions were applied onto wheat seedlings using an automated booth sprayer to run-off. All sprayed plants were allowed to air dry prior to further handling.
as §1, with “Wheat” for “Technical grades of materials were dissolved in acetone, which were then mixed with nine volumes of water containing 110 ppm Triton X-100. The fungicide solutions were applied onto wheat seedlings using an automated booth sprayer to run-off. All sprayed plants were allowed to air dry prior to further handling. Wheat”
Wheat plants (variety Yuma) were grown from seed in a greenhouse in 50% mineral soil/50% soil-less Metro mix until the first leaf was fully emerged, with 7-10 seedlings per pot. These plants were inoculated with an aqueous spore suspension of Puccinia triticina either prior to or after fungicide treatments. After inoculation the plants were kept in a dark dew room at 22° C. with 100% relative humidity overnight to permit spores to germinate and infect the leaf. The plants were then transferred to a greenhouse set at 24° C. for disease to develop. Fungicide formulation, application and disease assessment followed the procedures as described in Example 18.

[3] = 1DP, read-out: Disease Control SEPTTR 1DP
[4] = 3DC, read-out: Disease Control SEPTTR 3DC
[5] = 1DP, read-out: Disease Control PUCCRT 1DP
[6] = 1DC, read-out: Disease Control PUCCRT 1DC

Structure (SMILES)	pest or weed control at 50 ppm [1, 3] [%]	pest or weed control at 50 ppm [1, 4] [%]	pest or weed control at 50 ppm [2, 5] [%]	pest or weed control at 50 ppm [2, 6] [%]	melting point [°C]	Disease Control SEPTTR 1DP ([1]; 50 ppm, 1DP)
N#Cc1ccc(Oc2ccc(C(F)(F)C(O)(Cn3nn[nH]c3=S)c3ccc(F)cc3F)nc2)cc1 (centres unmarked) [Compound F2, 4-((6-(2-(2,4-difluorophenyl)-1,1-difluoro-2-hydroxy-3-(5-thioxo-4,5-dihydro-1H-tetrazol-)propyl)pyridin-3-yl)oxy)benzonitrile]	80 to 100	80 to 100	80 to 100			
CCSc1nnnn1CC(O)(c1ccc(F)cc1F)C(F)(F)c1ccc(Oc2ccc(C#N)cc2)cn1 (centres unmarked) [Compound F7]	0 to 80	80 to 100	80 to 100	80 to 100		
OC(Cn1nn[nH]c1=S)(c1ccc(F)cc1F)C(F)(F)c1ccc(OC2CC2(F)F)cn1 (centres unmarked) [Compound F10]	80 to 100	80 to 100	80 to 100	80 to 100	53 to 57	
OC(Cn1nn[nH]c1=S)(c1ccc(F)cc1F)C(F)(F)c1ccc(Oc2ccc(Cl)cn2)cn1 (centres unmarked) [Compound F4]	80 to 100	80 to 100	80 to 100	80 to 100		
CSc1nnnn1CC(O)(c1ccc(F)cc1F)C(F)(F)c1ccc(Oc2ccc(C#N)cc2)cn1 (centres unmarked) [Compound F11, 4-((6-(2-(2,4-difluorophenyl)-1,1-difluoro-2-hydroxy-3-(5-(methylthio)-1H-tetrazol-1-yl)propyl)pyridin-3-yl)oxy)benzonitrile]	80 to 100	80 to 100	80 to 100			
OC(Cn1nn[nH]c1=S)(c1ccc(F)cc1F)C(F)(F)c1ccc(Oc2ccc(C(F)(F)F)cn2)cn1 (centres unmarked) [Compound F8]	80 to 100	80 to 100	80 to 100	80 to 100		
N#Cc1ccc(Oc2ccc(C(F)(F)C(O)(Cn3nnnc3SCC3CC3)c3ccc(F)cc3F)nc2)cc1 (centres unmarked) [Compound F13]	80 to 100	80 to 100	80 to 100			
CSc1nnnn1CC(O)(c1ccc(F)cc1F)C(F)(F)c1ccc(Br)cn1 (centres unmarked) [Compound F6, 1-(5-bromopyridin-2-yl)-2-(2,4-difluorophenyl)-1,1-difluoro-3-(5-(methylthio)-1H-tetrazol-1-yl)propan-2-ol]		0 to 80	0 to 80	80 to 100		D
N#Cc1ccc(Oc2ccc(C(F)(F)C(O)(Cn3nnnc3SCc3ccccc3)c3ccc(F)cc3F)nc2)cc1 (centres unmarked) [Compound F12]	0 to 80	80 to 100	80 to 100			
N#Cc1ccc(Oc2ccc(C(F)(F)C(O)(Cn3nn[nH]c3=S)c3ccc(F)cc3F)nc2)nc1 (centres unmarked) [Compound F3]	80 to 100	0 to 80	80 to 100	80 to 100		
OC(Cn1nn[nH]c1=S)(c1ccc(F)cc1F)C(F)(F)c1ccc(OCC(F)(F)F)cn1 (centres unmarked) [Compound F5]	80 to 100	80 to 100	80 to 100	80 to 100		
OC(Cn1nn[nH]c1=S)(c1ccc(F)cc1F)C(F)(F)c1ccc(COC(F)F)cn1 (centres unmarked) [Compound F9]	80 to 100	80 to 100	80 to 100	80 to 100		
NC(=S)c1ccc(Oc2ccc(C(F)(F)C(O)(Cn3nn[nH]c3=S)c3ccc(F)cc3F)nc2)cc1 (centres unmarked) [Compound F1, 4-((6-(2-(2,4-difluorophenyl)-1,1-difluoro-2-hydroxy-3-(5-thioxo-4,5-dihydro-1H-tetrazol-)propyl)pyridin-3-yl)oxy)benzothioamide]	80 to 100	80 to 100	80 to 100	80 to 100	214 to 218	
